Measured values taken from patent US20230250084A1, “PYRAZOLYL PYRIMIDINONE COMPOUNDS AND THE USES THEREOF” (Purdue Research Foundation, priority 2019, published 2023).

Columns and labels:
[1] = biological target: AC8 (Homo sapiens, UniProt P40145); assay: Adenylyl cyclase cAMP accumulation assay, HEK-ACA3/6 cells overexpressing human AC8; format: cell-based; design: expressed in transfected cells; host or cells: HEK-ACA3/6 cells (so in the source) overexpressing human AC8; conditions: Table 2; for IC50: 3 μM A23187 + 0.5 mM IBMX, HTRF cAMP, read-out: AC8 IC50 (μM) ± SEM; for inhibition at up to 30 µM: percent inhibition at the highest concentration (dilution starting at 30 μM), read-out: Max AC8 % inhibition
Experimental: (§1) Cryopreserved HEK-ACA3/6 cells overexpressing human AC1, AC2, AC5, or AC8 were transferred to a 15 mL Falcon tube and gently resuspended in prewarmed Opti-MEM.50 The cells were centrifuged for 5 min at 150 g, the supernatant was discarded, and the cell pellet was resuspended in 10 mL for a second centrifugation step. Then, the cells were counted, plated in a white opaque 384-well plate, and incubated for 1 h in a 37° C. incubator supplemented with 5% CO2. The hit compounds' working solutions were prepared in prewarmed Opti-MEM, and successive serial dilutions were prepared using a Precision 2000 automated pipetting system. Dose*-response curves were generated for each hit compound using a threefold serial dilution starting at 30 μM concentration (at least 6-points per curve). Compounds were added to the assay plates and incubated for 30 min at room temperature. AC activity was selectively stimulated on each AC isoform with 3 μM A23187 (AC1 and AC8), 100 nM PMA (AC2), or a low concentration (1 μM) of the AC activator, forskolin (AC5). All stimulants of AC activity were added in combination with IBMX at a final concentration of 0.5 mM. After 1 h incubation with the stimulant at room temperature, cAMP accumulation was detected using the fluorescence-based Cisbio HTRF cAMP detection kit. […] Percent inhibition at the highest concentration was used to determine max % inhibition (Max AC8% Inhibition).
The Max AC8 inhibition is a description of the maximum efficacy of molecules against AC8.

[2] = biological target: AC1 (Homo sapiens, UniProt Q08828); assay: Adenylyl cyclase cAMP accumulation assay, HEK-ACA3/6 cells overexpressing human AC1; format: cell-based; design: expressed in transfected cells; host or cells: HEK-ACA3/6 cells (so in the source) overexpressing human AC1; conditions: Table 2; 3 μM A23187 + 0.5 mM IBMX, HTRF cAMP; read-out: AC1 IC50 (μM) ± SEM
Experimental: as §1, with “Inhibition). […]” for “Inhibition).”

AC1, sequence (Q08828 whole entry): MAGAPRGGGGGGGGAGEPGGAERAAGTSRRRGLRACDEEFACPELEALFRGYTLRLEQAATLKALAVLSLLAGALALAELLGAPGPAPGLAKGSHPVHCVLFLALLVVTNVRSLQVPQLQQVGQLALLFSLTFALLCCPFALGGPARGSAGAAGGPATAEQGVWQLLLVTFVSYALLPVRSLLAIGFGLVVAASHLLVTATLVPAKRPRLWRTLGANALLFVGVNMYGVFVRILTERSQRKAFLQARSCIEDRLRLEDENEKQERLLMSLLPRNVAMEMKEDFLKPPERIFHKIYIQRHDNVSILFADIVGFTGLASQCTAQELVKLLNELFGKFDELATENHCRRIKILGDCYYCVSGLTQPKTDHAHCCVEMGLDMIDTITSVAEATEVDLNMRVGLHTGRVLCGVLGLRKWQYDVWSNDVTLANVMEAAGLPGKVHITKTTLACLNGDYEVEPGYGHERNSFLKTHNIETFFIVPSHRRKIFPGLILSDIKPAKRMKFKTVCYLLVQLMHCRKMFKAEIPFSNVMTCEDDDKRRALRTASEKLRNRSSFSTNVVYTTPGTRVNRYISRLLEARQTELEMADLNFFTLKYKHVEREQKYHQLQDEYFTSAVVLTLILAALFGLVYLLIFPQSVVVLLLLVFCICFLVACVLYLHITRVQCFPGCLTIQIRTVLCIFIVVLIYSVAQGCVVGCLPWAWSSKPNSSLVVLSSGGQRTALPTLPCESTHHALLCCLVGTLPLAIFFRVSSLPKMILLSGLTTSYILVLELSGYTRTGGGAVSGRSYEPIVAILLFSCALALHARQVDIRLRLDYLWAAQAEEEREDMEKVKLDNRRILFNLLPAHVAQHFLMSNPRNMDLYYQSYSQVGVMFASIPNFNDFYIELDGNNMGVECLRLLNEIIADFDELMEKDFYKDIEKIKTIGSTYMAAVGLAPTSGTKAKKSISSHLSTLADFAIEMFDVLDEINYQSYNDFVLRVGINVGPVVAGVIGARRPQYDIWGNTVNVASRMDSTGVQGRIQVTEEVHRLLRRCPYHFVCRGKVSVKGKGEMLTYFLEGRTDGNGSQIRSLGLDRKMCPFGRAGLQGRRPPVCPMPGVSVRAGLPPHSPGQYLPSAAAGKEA
AC8, sequence (P40145 whole entry): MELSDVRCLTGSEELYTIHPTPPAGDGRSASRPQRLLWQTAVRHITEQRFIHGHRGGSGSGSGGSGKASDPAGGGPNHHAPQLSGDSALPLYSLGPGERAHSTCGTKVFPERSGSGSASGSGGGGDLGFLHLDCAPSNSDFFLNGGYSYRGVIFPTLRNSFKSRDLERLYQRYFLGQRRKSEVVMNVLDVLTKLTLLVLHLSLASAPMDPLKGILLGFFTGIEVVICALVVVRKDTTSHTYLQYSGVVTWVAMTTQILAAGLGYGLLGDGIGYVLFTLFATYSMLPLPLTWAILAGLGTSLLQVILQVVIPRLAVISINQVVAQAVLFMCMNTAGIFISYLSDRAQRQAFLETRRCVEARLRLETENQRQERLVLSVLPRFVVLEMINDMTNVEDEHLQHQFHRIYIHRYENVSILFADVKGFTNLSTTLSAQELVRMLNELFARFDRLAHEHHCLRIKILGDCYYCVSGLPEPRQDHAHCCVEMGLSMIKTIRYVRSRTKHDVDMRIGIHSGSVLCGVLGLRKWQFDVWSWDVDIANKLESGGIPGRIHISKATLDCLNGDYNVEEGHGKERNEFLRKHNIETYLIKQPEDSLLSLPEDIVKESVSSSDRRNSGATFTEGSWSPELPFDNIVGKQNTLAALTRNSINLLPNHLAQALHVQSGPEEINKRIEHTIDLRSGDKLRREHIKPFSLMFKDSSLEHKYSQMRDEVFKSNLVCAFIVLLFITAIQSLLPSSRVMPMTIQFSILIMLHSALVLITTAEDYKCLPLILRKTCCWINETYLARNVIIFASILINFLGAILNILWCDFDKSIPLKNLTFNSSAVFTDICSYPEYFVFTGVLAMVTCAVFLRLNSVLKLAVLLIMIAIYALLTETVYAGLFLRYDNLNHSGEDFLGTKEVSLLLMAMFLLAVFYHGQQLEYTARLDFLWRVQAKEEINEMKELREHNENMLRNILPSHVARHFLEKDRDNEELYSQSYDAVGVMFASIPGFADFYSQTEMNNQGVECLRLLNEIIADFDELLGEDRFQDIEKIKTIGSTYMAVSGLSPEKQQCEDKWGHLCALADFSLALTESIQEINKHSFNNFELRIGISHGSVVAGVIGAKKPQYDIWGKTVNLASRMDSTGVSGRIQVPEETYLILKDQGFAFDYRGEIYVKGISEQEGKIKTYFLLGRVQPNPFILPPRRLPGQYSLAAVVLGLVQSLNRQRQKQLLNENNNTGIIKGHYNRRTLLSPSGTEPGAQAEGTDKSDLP

IC50 [1] [µM]	inhibition at up to 30 µM [1] [%]	IC50 [2] [µM]	Structure (SMILES)
31.8 ± 19.3	35	0.36 ± 0.12	Cc1cc(=O)[nH]c(-n2nc(C)cc2NCc2ccc(Cl)cc2)n1 [AC10111A]
45.3 ± 14.1	37	0.86 ± 0.07	CCc1cc(=O)[nH]c(-n2nc(-c3ccccc3)cc2NCc2ccc(OC)cc2)n1 [AC10112A]
> 60	19	15.5 ± 8.63	Cc1cc(NCc2ccc(Cl)cc2)n(-c2ccccc2)n1 [AC10113A]
> 60	33	0.63 ± 0.22	Cc1cccc(CNc2cc(C)nn2-c2nc(C)cc(=O)[nH]2)c1 [AC10114A]
10.8 ± 4.61	82	0.75 ± 0.39	Cc1cccc(CNc2cc(C)nn2-c2nc3c(c(=O)[nH]2)CCC3)c1 [AC10115A]
8.23 ± 4.05	83	2.63 ± 0.51	Cc1cccc(CNc2cc(C)nn2-c2nccc(=O)[nH]2)c1 [AC10116A]
> 60	23	1.07 ± 0.07	CCc1cc(=O)[nH]c(-n2nc(C)cc2NCc2ccco2)n1 [AC10139A]
> 60	4	0.39 ± 0.02	CCc1cc(=O)[nH]c(-n2nc(C)cc2NCc2cccs2)n1 [AC10140A]
2.01 ± 0.09	84	0.26 ± 0.03	CCc1cc(=O)[nH]c(-n2nc(C)cc2NCc2ccc(C(=O)c3ccccc3)cc2)n1 [AC10144A]
